The supplement of paper PMC10307832

Columns and labels:
Test in all cases: relative viability (nuclei count vs DMSO), 5 days (fraction); higher = more cells survive
GSK126 = compound: CC[C@H](C)N1C=C(C2=C(C=C(C=C21)C3=CN=C(C=C3)N4CCNCC4)C(=O)NCC5=C(C=C(NC5=O)C)C)C [GSK126]
Summary of the method: (§1)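 Vehicle-anchored 1536-well plates of lung cancer cell lines, held overnight at 37 °C, were pinned with five library-drug doses (not always all listed) spaced by √10. No medium change followed over the next 5 days, after which the cells were fixed, permeabilised and Hoechst-stained together and imaged at 4×. Nuclei were counted with MetaXpress, and viability is treated-well nuclei over vehicle-well nuclei, taken as a median across plates. Plates passed with control CV below 25% and at least one doubling.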

Carboplatin = compound: C1CC(C1)(C(=O)O)C(=O)O.[NH2-].[NH2-].[Pt+2] [Carboplatin]
Summary of the method: as §1

MLN4924 = compound: NS(=O)(=O)OC[C@@H]1C[C@@H](n2ccc3c(N[C@H]4CCc5ccccc54)ncnc32)C[C@@H]1O [MLN4924]
Summary of the method: as §1

Carboplatin + Foretinib = compound: C1CC(C1)(C(=O)O)C(=O)O.[NH2-].[NH2-].[Pt+2] [Carboplatin] + COc1cc2c(Oc3ccc(NC(=O)C4(C(=O)Nc5ccc(F)cc5)CC4)cc3F)ccnc2cc1OCCCN1CCOCC1 [Foretinib] (partner 0.25 µM)
Summary of the method: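 The day after seeding in 1536-well plates, lung cancer cell lines were treated by pin tool with a single drug, or with a fixed anchor-drug dose together with five library-drug doses (not always all listed) in √10 steps. After 5 days, a combined fix-and-stain solution (final 0.05% Triton X-100, 1% formaldehyde, 1 ug/ml Hoechst) was added. Nuclei counted on 4× images gave relative viability as treated counts over vehicle counts, reported as the median of duplicate plates.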

Cell Line	relative viability (GSK126; 0.08 µM)	relative viability (GSK126; 0.253 µM)	relative viability (GSK126; 0.8 µM)	relative viability (GSK126; 2.53 µM)	relative viability (GSK126; 8 µM)	relative viability (Carboplatin; 0.08 µM)	relative viability (Carboplatin; 0.253 µM)	relative viability (Carboplatin; 0.8 µM)	relative viability (Carboplatin; 2.53 µM)	relative viability (Carboplatin; 8 µM)	relative viability (MLN4924; 0.04 µM)	relative viability (MLN4924; 0.1265 µM)	relative viability (MLN4924; 0.4 µM)	relative viability (MLN4924; 1.265 µM)	relative viability (MLN4924; 4 µM)	relative viability (Carboplatin + Foretinib; first compound 0.08 µM)	relative viability (Carboplatin + Foretinib; first compound 0.253 µM)	relative viability (Carboplatin + Foretinib; first compound 0.8 µM)	relative viability (Carboplatin + Foretinib; first compound 2.53 µM)	relative viability (Carboplatin + Foretinib; first compound 8 µM)
SK-MES-1	1.03	0.999	0.985	1.04	1.08	1.07	0.991	1.02	0.974	0.918	0.999	0.846	0.563	0.222	0.221	1.24	0.95	0.906	1.06	0.818
NCI-H1648	0.932	0.783	1.07	1.2	0.725	1.13	0.878	0.871	0.6	0.813	0.635	0.448	0.329	0.246	0.32	–	–	–	–	–
PC-14	1.02	1.01	0.935	1.03	0.942	1.09	0.998	0.997	0.684	0.309	1.04	0.93	0.624	0.153	0.111	0.945	0.885	0.942	0.905	0.694
NCI-H1651	1.09	0.957	0.956	1.05	1.09	0.996	1.01	0.948	0.861	0.679	1.02	1.04	0.967	0.503	0.202	0.791	0.827	0.822	0.795	0.413
HOP-62	1.01	1.02	1.03	0.968	0.973	1.03	1.03	1.06	0.981	0.833	0.814	0.74	0.226	0.067	0.101	0.984	1	1.07	1.04	0.994
HCC-44	1.03	1	1.01	0.869	1.05	1.04	0.92	0.949	0.915	0.723	0.635	0.683	0.219	0.217	0.225	–	–	–	–	–
HCC-15	1.07	1.03	0.988	1.01	0.909	1.03	1.05	0.964	0.94	0.864	0.62	0.483	0.158	0.0986	0.103	1.05	1.04	0.969	0.845	0.715
NCI-H460	1.08	1.06	0.984	1.01	1.05	1.02	0.981	0.994	0.915	0.412	0.976	0.985	0.914	0.288	0.105	0.98	1.03	0.968	0.716	0.322
NCI-H1299	1.02	0.994	0.988	1	0.998	1.05	0.98	1.02	0.969	0.943	1.01	0.823	0.676	0.287	0.212	1.13	1.09	1.04	1.05	0.996
SK-LU-1	1.01	1.05	1.02	1.14	1.08	1.16	1.07	1.06	0.975	0.802	0.99	0.799	0.369	0.191	0.201	0.867	0.878	0.815	0.749	0.543
COR-L 105	1.03	0.87	0.856	1.02	0.971	0.975	0.939	0.845	0.831	0.52	0.775	0.773	0.431	0.258	0.336	0.986	0.993	0.902	0.897	0.578
COR-L23	1.1	1.02	0.944	0.986	1.02	0.961	0.928	0.979	0.759	0.417	0.98	0.882	0.661	0.233	0.135	0.948	0.94	0.91	0.729	0.512
NCI-H3122	1.03	1	0.966	1.02	1	1.01	1.01	1.02	1.01	0.968	0.92	0.585	0.325	0.139	0.135	0.944	0.986	0.926	0.91	0.923
NCI-H23	1.03	0.949	1.02	1.18	1.21	1.13	1.01	0.991	1.02	0.792	0.815	0.721	0.462	0.204	0.206	1.02	1.01	0.886	0.846	0.826
PC-3 [JPC-3]	1.03	0.999	1.06	1.03	1.12	1.14	1.08	1.05	0.992	0.96	0.994	1.1	0.397	0.432	0.396	1.08	1.03	1	1.05	0.933
NCI-H2228	1.21	0.992	1.04	1.12	1.07	1.27	1.16	0.91	0.941	0.687	0.723	1.08	0.435	0.171	0.205	0.907	0.831	0.626	0.845	0.532
